This assay deals with MX-1 breast xenograft, nude mice, tumor weight change. Put plainly: NCI In Vivo Anticancer Drug Screen. Data for tumor model Human Mammary Carcinoma MX-1 Xenograft (subcutaneous) in NU/NU Swiss (nude) mice. The following applies: endpoint: optimum tumor weight change, higher = larger tumour. As to the method:
The antitumor activity of compounds was measured in mice bearing transplantable tumors. Survival or tumor size were measured and the results are expressed as the measurement made in the treated group (T) divided by the measurement made in the vehicle treated control group (C). The tumor model used in this assay is Human Mammary Carcinoma MX-1 Xenograft (subcutaneous) in NU/NU Swiss (nude) mice

The mark [1] stands for this setting: dose: 50.0 mg/kg/injection, schedule: Q04DX003 (ip), vehicle: Klucel (hydroxypropylcellulose) (HPC).
The mark [2] stands for this setting: dose: 100.0 mg/kg/injection, schedule: Q04DX003 (ip), vehicle: Klucel (hydroxypropylcellulose) (HPC).
The mark [3] stands for this setting: dose: 200.0 mg/kg/injection, schedule: Q04DX003 (ip), vehicle: Klucel (hydroxypropylcellulose) (HPC).
[4] abbreviates: dose: 25.0 mg/kg/injection, schedule: Q04DX003 (ip), vehicle: Klucel (hydroxypropylcellulose) (HPC).
The mark [5] stands for this setting: dose: 100.0 mg/kg/injection, schedule: Q04DX003 (ip), vehicle: saline.
Setting [6] is: dose: 200.0 mg/kg/injection, schedule: Q04DX003 (ip), vehicle: saline.
Setting [7] is: dose: 400.0 mg/kg/injection, schedule: Q04DX003 (ip), vehicle: saline.
Setting [8] is: dose: 800.0 mg/kg/injection, schedule: Q04DX003 (ip), vehicle: saline.
[9] abbreviates: dose: 7.5 mg/kg/injection, schedule: Q04DX003 (ip), vehicle: saline.
The mark [10] stands for this setting: dose: 30.0 mg/kg/injection, schedule: Q04DX003 (ip), vehicle: saline.
The mark [11] stands for this setting: dose: 60.0 mg/kg/injection, schedule: Q04DX003 (ip), vehicle: saline.
Where [12] appears, read: dose: 25.0 mg/kg/injection, schedule: Q04DX003 (ip), vehicle: saline.
[13] abbreviates: dose: 50.0 mg/kg/injection, schedule: Q04DX003 (ip), vehicle: saline.
Where [14] appears, read: dose: 100.0 mg/kg/injection, schedule: Q04DX003 (ip), vehicle: saline with Tween-80.
Setting [15] is: dose: 400.0 mg/kg/injection, schedule: Q04DX003 (ip), vehicle: Klucel (hydroxypropylcellulose) (HPC).

Where “and” joins values, the source holds several entries; their conditions need not be identical. Identical values can stand only once.

Regarding `CN(C)c1nc(N(C)C)nc(N(C)C)n1`, the T/C is, setting by setting: under setting [1], 59 % of control; (dose: 60.0 mg/kg/injection, schedule: Q01DX005 (ip), vehicle: Klucel (hydroxypropylcellulose) (HPC)) 15 % of control; (dose: 60.0 mg/kg/injection, schedule: Q07DX005 (ip), vehicle: Klucel (hydroxypropylcellulose) (HPC)) 42 % of control; under setting [2], 47 % of control; (dose: 120.0 mg/kg/injection, schedule: Q01DX005 (ip), vehicle: Klucel (hydroxypropylcellulose) (HPC)) 1 % of control; (dose: 120.0 mg/kg/injection, schedule: Q04DX005 (ip), vehicle: Klucel (hydroxypropylcellulose) (HPC)) -38 % of control. For the same molecule, the T/C by setting is: under setting [3], 1 % of control; (dose: 240.0 mg/kg/injection, schedule: Q07DX005 (ip), vehicle: Klucel (hydroxypropylcellulose) (HPC)) -99 % of control.

Take `OCC1OC(n2cnc3c2NC=NC[C@H]3O)CC1O` (stereo partly drawn): the T/C reads like this: (dose: 4.0 mg/kg/injection, schedule: Q04DX003 (ip), vehicle: water) 77 % of control; (dose: 8.0 mg/kg/injection, schedule: Q04DX003 (ip), vehicle: water) 78 % of control; (dose: 16.0 mg/kg/injection, schedule: Q04DX003 (ip), vehicle: water) 49 % of control.

With `CO[C@H]1C[C@](C)(O)Cc2cc3c(c(O)c21)C(=O)c1c(O)cc2c(c1C3=O)O[C@@H]1O[C@@]2(C)[C@H](O)[C@@H](N(C)C)[C@@H]1O`, the T/C reads like this: (dose: 6.25 mg/kg/injection, schedule: Q04DX003 (ip), vehicle: other) 169 % of control; (dose: 12.5 mg/kg/injection, schedule: Q04DX003 (ip), vehicle: other) 165 % of control.

On to `COC(OC(CO)C(O)S(=O)(=O)O)C(O)S(=O)(=O)O` (stereo not drawn), for which the T/C is 83 % of control under setting [4]; 80 % of control under setting [1]; 62 % of control under setting [2]; 63 % of control under setting [5]; 74 % of control under setting [6]; 68 % of control under setting [7]. Moreover, under setting [8], the T/C is 47 % of control.

On to `CCCCNCCCNCCCNC(=O)c1csc(-c2csc(CCNC(=O)C(NC(=O)C(C)C(O)C(C)NC(=O)C(NC(=O)c3nc(C(CC(N)=O)NCC(N)C(N)=O)nc(N)c3C)C(OC3OC(CO)C(O)C(O)C3OC3OC(CO)C(O)C(OC(N)=O)C3O)c3cnc[nH]3)C(C)O)n2)n1` (stereo not drawn), for which the T/C under setting [9] is 49 % of control and 57 % of control; the T/C under setting [10] is 29 % of control (2×) and 49 % of control; the T/C under setting [11] is 5 % of control and 12 % of control and 18 % of control; the T/C (dose: 120.0 mg/kg/injection, schedule: Q04DX003 (ip), vehicle: saline) is 2 % of control.

Regarding `Cn1cnc([N+](=O)[O-])c1[Se]c1nc(N)nc2nc[nH]c12`, the T/C is, setting by setting: (dose: 12.5 mg/kg/injection, schedule: Q04DX003 (ip), vehicle: water) 103 % of control; (dose: 25.0 mg/kg/injection, schedule: Q04DX003 (ip), vehicle: water) 84 % of control; (dose: 50.0 mg/kg/injection, schedule: Q04DX003 (ip), vehicle: water) 60 % of control.

For the molecule `N[C@H](C(=O)O)[C@@H]1CC(Cl)=NO1`, the T/C under setting [12] was 19 % of control, the T/C under setting [13] is 12 % of control, the T/C under setting [5] is 5 % of control and the T/C under setting [6] is 1 % of control.

As to `CCN(CC)CCCC(C)Nc1c2ccc(Cl)cc2nc2ccc(OC)cc12` (stereo not drawn), the T/C by setting is: (dose: 50.0 mg/kg/injection, schedule: Q04DX003 (ip), vehicle: saline with Tween-80) 95 % of control; under setting [14], 88 % of control.

As to `OCC1OC(n2cnc3cncnc32)C(O)C1O` (stereo not drawn), the T/C reads like this: (dose: 12.5 mg/kg/injection, schedule: Q04DX003 (ip), vehicle: saline) 88 % of control; under setting [12], 94 % of control; under setting [13], 108 % of control.

Regarding `CNC=O`, the T/C runs as follows: under setting [6], 7 % of control and 29 % of control; under setting [7], -1 % of control and 17 % of control; under setting [8], -12 % of control; (dose: 1600.0 mg/kg/injection, schedule: Q04DX003 (ip), vehicle: saline) -64 % of control.

Turning to `N=C(N)SCc1c2ccccc2c(CSC(=N)N)c2ccccc12`, the T/C is 83 % of control (dose: 25.0 mg/kg/injection, schedule: Q04DX003 (ip), vehicle: suspension in saline) and 123 % of control (dose: 50.0 mg/kg/injection, schedule: Q04DX003 (ip), vehicle: suspension in saline).

With `CN(N=O)C(=O)N[C@@H](C=O)[C@@H](O)[C@H](O)[C@H](O)CO`, the T/C is, setting by setting: under setting [5], 58 % of control; under setting [6], 80 % of control.

`CN(C)N=Nc1cn[nH]c1C(N)=O`: the T/C was 100 % of control under setting [1], 98 % of control under setting [2], 71 % of control under setting [3] and 82 % of control under setting [15].

For `CC(=O)OCC(=O)[C@@]12OC(C)(C)O[C@@H]1C[C@H]1[C@@H]3CC(C=O)=C4C=C(OCCCl)CC[C@]4(C)[C@@]3(F)[C@@H](O)C[C@@]12C`, the T/C under setting [1] is 54 % of control.

As to `CC(C)CCCCCCCCCCCCC(=O)NCC(=O)NC1C(O)C(O)C(Nc2ncnc3nc[nH]c23)OC1C(O)CO` (stereo not drawn), the T/C by setting is: (dose: 3.0 mg/kg/injection, schedule: Q04DX003 (ip), vehicle: suspension in saline) 91 % of control; (dose: 6.0 mg/kg/injection, schedule: Q04DX003 (ip), vehicle: suspension in saline) 109 % of control; (dose: 12.0 mg/kg/injection, schedule: Q04DX003 (ip), vehicle: suspension in saline) 30 % of control.

On to `CS(=O)(=O)OCCN(CCOS(C)(=O)=O)c1ccc(C=Nc2ccc(-c3csc(COc4ccccc4)n3)cc2)cc1`, for which the T/C by setting is: under setting [4], 45 % of control; under setting [1], 64 % of control; under setting [2], 99 % of control.

For `COc1cc(NS(C)(=O)=O)ccc1Nc1c2ccccc2nc2ccccc12`, the T/C (dose: 8.0 mg/kg/injection, schedule: Q04DX003 (ip), vehicle: saline + alcohol) was 74 % of control.

For `CN(C)N=Nc1cccc(C(N)=O)c1`, the T/C is 102 % of control under setting [1], 87 % of control under setting [2] and 81 % of control under setting [15].

Consider `CCCC(=O)OCc1cc(=O)n(C)c2c3c4c(cc12)c(C)cc(=O)n4CO3`, for which the T/C by setting is: under setting [1], 48 % of control; under setting [2], 70 % of control.

Take `Cc1c(N)nc(C(CC(N)=O)NCC(N)C(N)=O)nc1C(=O)NC(C(=O)NC(C)C(O)C(C)C(=O)NC(C(=O)NCCc1nc(-c2nc(C(=O)NCCCNC(C)c3ccccc3)cs2)cs1)C(C)O)C(OC1OC(CO)C(O)C(O)C1OC1OC(CO)C(O)C(OC(N)=O)C1O)c1cnc[nH]1` (stereo not drawn): the T/C by setting is: under setting [9], 43 % of control and 50 % of control; under setting [10], 18 % of control and 22 % of control; under setting [11], 17 % of control.

As to `CC1(CO)C(O)CCC2(C)C1CCC1CC3CC12CCC3(O)CO` (stereo not drawn), the T/C was 50 % of control under setting [14]; 61 % of control (dose: 200.0 mg/kg/injection, schedule: Q04DX003 (ip), vehicle: saline with Tween-80); 54 % of control (dose: 400.0 mg/kg/injection, schedule: Q04DX003 (ip), vehicle: saline with Tween-80).

As to `Nc1cc2[nH]cnc2c(=O)[nH]1`, the T/C under setting [13] was 58 % of control, the T/C under setting [5] is 87 % of control and the T/C under setting [6] is 59 % of control.

For `CC[C@](O)(C(=O)O)c1cc2n(c(=O)c1CO)Cc1cc3ccccc3nc1-2`, the T/C (dose: 4.5 mg/kg/injection, schedule: Q04DX003 (ip), vehicle: saline) is 122 % of control; the T/C (dose: 9.0 mg/kg/injection, schedule: Q04DX003 (ip), vehicle: saline) is 97 % of control; the T/C (dose: 16.0 mg/kg/injection, schedule: Q04DX003 (ip), vehicle: saline) is 44 % of control; the T/C (dose: 18.0 mg/kg/injection, schedule: Q04DX003 (ip), vehicle: saline) was 59 % of control; the T/C (dose: 36.0 mg/kg/injection, schedule: Q04DX003 (ip), vehicle: saline) was 70 % of control.

As for `C[C@]12CC[C@@H]3c4ccc(OC(=O)Cc5ccc(N(CCCl)CCCl)cc5)cc4CC[C@H]3[C@@H]1CC[C@@H]2OC(=O)Cc1ccc(N(CCCl)CCCl)cc1`, under “dose: 800.0 mg/kg/injection, schedule: Q04DX003 (ip), vehicle: saline with Tween-80”, the T/C is 50 % of control.

Turning to `CCOC(=O)C1C2OC(=O)C(C(=O)C2CN(CCCl)CCCl)C1C1CC=C(CC2=CCC(C3C4C(=O)OC(C(CN(CCCl)CCCl)C4=O)C3C(=O)OCC)CC2)CC1` (stereo not drawn), the T/C was 58 % of control under setting [4] and 35 % of control under setting [2].

These data come from PubChem BioAssay AID294 (DTP/NCI, 2004).
